In brackets after ≈: the same amount, converted by molar mass. Square brackets hold non-standard residues; d marks the D form. Peptide text beside a SMILES is read from it. ξ: configuration not given here. Oic(3aξ,7aξ) = O=C(O)[C@@H]1CC2CCCCC2N1; Tiq1c(1S) = O=C(O)[C@H]1NCCc2ccccc21
Columns and labels:
Acinetobacter baumannii [1] = assay: Antimicrobial activity against Acinetobacter baumannii WRAIR; format: functional
Acinetobacter baumannii [2] = assay: Antimicrobial activity against Acinetobacter baumannii ATCC 19606; format: functional
[3] = Binding affinity to 1-palmitoyl-2-oleoyl-sn-glycero-3-phosphocholine/1-palmitoyl- 2-oleoyl-sn-glycero-3-[phospho-rac-(1-glycerol)] (sodium salt) large unilamellar vesicle at 200 uM by isothermal titration calorimetry analysis; format: physicochemical
[4] = Binding affinity to 1-palmitoyl-2-oleoyl-sn-glycero-3-phosphocholine large unilamellar vesicle at 100 uM by isothermal titration calorimetry analysis; format: physicochemical
[5] = Binding affinity to 1-palmitoyl-2-oleoyl-sn-glycero-3-phosphocholine/1-palmitoyl- 2-oleoyl-sn-glycero-3-[phospho-rac-(1-glycerol)] (sodium salt) small unilamellar vesicle in 40 mM phosphate buffer at pH 6.8 at 100 uM by Far-UV CD spectra analysis; format: physicochemical; settings: pH 6.8, 100 µM
[6] = Binding affinity to 1-palmitoyl-2-oleoyl-sn-glycero-3-phosphocholine/1-palmitoyl- 2-oleoyl-sn-glycero-3-[phospho-rac-(1-glycerol)] (sodium salt) large unilamellar vesicle in 40 mM phosphate buffer at pH 6.8 at 100 uM by Far-UV CD spectra analysis; format: physicochemical; settings: pH 6.8, 100 µM
[7] = Binding affinity to 1-palmitoyl-2-oleoyl-sn-glycero-3-phosphocholine small unilamellar vesicle in 40 mM phosphate buffer at pH 6.8 at 100 uM by Far-UV CD spectra analysis; format: physicochemical; settings: pH 6.8, 100 µM
[8] = Binding affinity to 1-palmitoyl-2-oleoyl-sn-glycero-3-phosphocholine large unilamellar vesicle in 40 mM phosphate buffer at pH 6.8 at 100 uM by Far-UV CD spectra analysis; format: physicochemical; settings: pH 6.8, 100 µM
[9] = Binding affinity to DPC micelles by CD spectra analysis; format: physicochemical
[10] = Binding affinity to SDS micelles by CD spectra analysis; format: physicochemical
[11] = Induction of calcein leakage in 1-palmitoyl-2-oleoyl-sn-glycero-3-phosphocholine/1-palmitoyl- 2-oleoyl-sn-glycero-3-[phospho-rac-(1-glycerol)] (sodium salt) large unilamellar vesicle assessed as leakage constant after 90 mins by fluorescence assay; format: physicochemical; settings: 1.5 h
[12] = Induction of calcein leakage in 1-palmitoyl-2-oleoyl-sn-glycero-3-phosphocholine large unilamellar vesicle assessed as leakage constant after 90 mins by fluorescence assay; format: physicochemical; settings: 1.5 h
[13] = Induction of calcein leakage in 1-palmitoyl-2-oleoyl-sn-glycero-3-phosphocholine/1-palmitoyl- 2-oleoyl-sn-glycero-3-[phospho-rac-(1-glycerol)] (sodium salt) large unilamellar vesicle at 4 to 20 uM after 90 mins by fluorescence assay; format: physicochemical; settings: 1.5 h
[14] = Induction of calcein leakage in 1-palmitoyl-2-oleoyl-sn-glycero-3-phosphocholine large unilamellar vesicle at 4 to 20 uM after 90 mins by fluorescence assay; format: physicochemical; settings: 1.5 h
[15] = system: Burkholderia pseudomallei; assay: Antimicrobial activity against Burkholderia pseudomallei; format: functional
Burkholderia mallei = assay: Antimicrobial activity against Burkholderia mallei; format: functional
Bacillus anthracis = assay: Antimicrobial activity against Bacillus anthracis AMES; format: functional
[16] = system: Francisella tularensis subsp. tularensis SCHU S4; assay: Antimicrobial activity against Francisella tularensis SCHUS4; format: functional
Brucella suis = assay: Antimicrobial activity against Brucella suis 23444; format: functional
Brucella melitensis = assay: Antimicrobial activity against Brucella melitensis 16M; format: functional
Brucella abortus = assay: Antimicrobial activity against Brucella abortus 2308; format: functional
Yersinia pestis = assay: Antimicrobial activity against Yersinia pestis CO92; format: functional
Staphylococcus aureus [17] = assay: Antimicrobial activity against Staphylococcus aureus ATCC 33591; format: functional
Bacillus subtilis = assay: Antimicrobial activity against Bacillus subtilis; format: functional
Mycobacterium = assay: Antimicrobial activity against Mycobacterium ranae; format: functional
Staphylococcus aureus [18] = assay: Antimicrobial activity against ME/GM/TC-resistant Staphylococcus aureus; format: functional
Salmonella typhimurium = assay: Antimicrobial activity against Salmonella typhimurium; format: functional, Salmonella enterica subsp. enterica serovar Typhimurium; settings: Salmonella enterica
[19] = Binding affinity to 1-palmitoyl-2-oleoyl-sn-glycero-3-phosphocholine large unilamellar vesicle at 200 uM by isothermal titration calorimetry analysis; format: physicochemical
[20] = Binding affinity to 1-palmitoyl-2-oleoyl-sn-glycero-3-phosphocholine/1-palmitoyl- 2-oleoyl-sn-glycero-3-[phospho-rac-(1-glycerol)] (sodium salt) small unilamellar vesicle in 40 mM phosphate buffer at pH 6.8 at 75 uM by Far-UV CD spectra analysis; format: physicochemical; settings: pH 6.8, 75 µM
[21] = Binding affinity to 1-palmitoyl-2-oleoyl-sn-glycero-3-phosphocholine/1-palmitoyl- 2-oleoyl-sn-glycero-3-[phospho-rac-(1-glycerol)] (sodium salt) large unilamellar vesicle in 40 mM phosphate buffer at pH 6.8 at 75 uM by Far-UV CD spectra analysis; format: physicochemical; settings: pH 6.8, 75 µM
[22] = Binding affinity to 1-palmitoyl-2-oleoyl-sn-glycero-3-phosphocholine small unilamellar vesicle in 40 mM phosphate buffer at pH 6.8 at 75 uM by Far-UV CD spectra analysis; format: physicochemical; settings: pH 6.8, 75 µM
[23] = Binding affinity to 1-palmitoyl-2-oleoyl-sn-glycero-3-phosphocholine large unilamellar vesicle in 40 mM phosphate buffer at pH 6.8 at 75 uM by Far-UV CD spectra analysis; format: physicochemical; settings: pH 6.8, 75 µM

Structure (SMILES)	MIC (Acinetobacter baumannii [1])	MIC (Acinetobacter baumannii [2])	Activity [3]	Activity [4]	Activity [5]	Activity [6]	Activity [7]	Activity [8]	Activity [9]	Activity [10]	K [11]	K [12]	Activity [13]	MIC [15]	MIC (Burkholderia mallei)	MIC (Bacillus anthracis)	MIC [16]	MIC (Brucella suis)	MIC (Brucella melitensis)	MIC (Brucella abortus)	other results
CC(=O)NCC(=O)N[C@@H](Cc1ccccc1)C(=O)N1CCc2ccccc2[C@H]1C(=O)N1C2CCCCC2C[C@H]1C(=O)NCC(=O)N[C@@H](CCCCN)C(=O)N1CCc2ccccc2[C@H]1C(=O)N1C2CCCCC2C[C@H]1C(=O)NCC(=O)N[C@@H](Cc1ccccc1)C(=O)N1CCc2ccccc2[C@H]1C(=O)N1C2CCCCC2C[C@H]1C(=O)NCC(=O)N[C@@H](CCCCN)C(=O)N1CCc2ccccc2[C@H]1C(=O)N[C@@H](CCCCN)C(=O)N[C@@H](CCCCN)C(=O)N[C@@H](CCCCN)C(N)=O (stereo partly drawn) (Ac-GF[Tiq1c(1S)][Oic(3aξ,7aξ)]GK[Tiq1c(1S)][Oic(3aξ,7aξ)]GF[Tiq1c(1S)][Oic(3aξ,7aξ)]GK[Tiq1c(1S)]KKK-NH2)	3.4 µM (≈ 7.86 µg/mL)	6.7 µM (≈ 15.5 µg/mL)	Active	Active	Active	Active	Active	Active	Active	Active	0.075	0.014	Active	0.02 µM (≈ 0.0463 µg/mL)	0.02 µM (≈ 0.0463 µg/mL)	27 µM (≈ 62.4 µg/mL)	0.02 µM (≈ 0.0463 µg/mL)	> 216 µM	54 µM (≈ 125 µg/mL)	27 µM (≈ 62.4 µg/mL)	Activity [14]: Active; MIC (Yersinia pestis): 27 µM (≈ 62.4 µg/mL); MIC (Staphylococcus aureus [17]): 54 µM (≈ 125 µg/mL)
CC(=O)NCC(=O)N[C@@H](Cc1ccccc1)C(=O)N1CCc2ccccc2[C@H]1C(=O)N1C2CCCCC2C[C@H]1C(=O)NCC(=O)N[C@@H](CCCCN)C(=O)N1CCc2ccccc2[C@H]1C(=O)N1C2CCCCC2C[C@H]1C(=O)NCC(=O)N[C@@H](Cc1ccccc1)C(=O)N1CCc2ccccc2[C@H]1C(=O)N1C2CCCCC2C[C@H]1C(=O)NCC(=O)N[C@@H](CCCCN)C(=O)N1CCc2ccccc2[C@H]1C(=O)N[C@@H](CCCCN)C(=O)N[C@@H](CCCCN)C(=O)N[C@@H](CCCCN)C(=O)N[C@@H](CCCCN)C(N)=O (stereo partly drawn) (Ac-GF[Tiq1c(1S)][Oic(3aξ,7aξ)]GK[Tiq1c(1S)][Oic(3aξ,7aξ)]GF[Tiq1c(1S)][Oic(3aξ,7aξ)]GK[Tiq1c(1S)]KKKK-NH2)	3.2 µM (≈ 7.81 µg/mL)	3.2 µM (≈ 7.81 µg/mL)	Active	–	–	–	–	–	Active	Active	0.089	0.097	Not Active	205 µM (≈ 500 µg/mL)	205 µM (≈ 500 µg/mL)	12.8 µM (≈ 31.2 µg/mL)	100 µM (≈ 244 µg/mL)	205 µM (≈ 500 µg/mL)	205 µM (≈ 500 µg/mL)	205 µM (≈ 500 µg/mL)	MIC (Bacillus subtilis): 1 µM (≈ 2.44 µg/mL); MIC (Mycobacterium): 10 µM (≈ 24.4 µg/mL); MIC (Staphylococcus aureus [18]): 3 µM (≈ 7.32 µg/mL); MIC (Salmonella typhimurium): 10 µM (≈ 24.4 µg/mL); Activity [19]: Active; Activity [20]: Active; Activity [21]: Active; Activity [22]: Active; Activity [23]: Active; MIC (Yersinia pestis): 205 µM (≈ 500 µg/mL); MIC (Staphylococcus aureus [17]): 205 µM (≈ 500 µg/mL)
CC(=O)NCC(=O)N[C@@H](Cc1ccccc1)C(=O)N1CCc2ccccc2[C@H]1C(=O)N1C2CCCCC2C[C@H]1C(=O)NCC(=O)N[C@@H](CCCCN)C(=O)N1CCc2ccccc2[C@H]1C(=O)N1C2CCCCC2C[C@H]1C(=O)NCC(=O)N[C@@H](Cc1ccccc1)C(=O)N1CCc2ccccc2[C@H]1C(=O)N1C2CCCCC2C[C@H]1C(=O)NCC(=O)N[C@@H](CCCCN)C(=O)N1CCc2ccccc2[C@H]1C(=O)N[C@@H](CCCCN)C(=O)N[C@@H](CCCCN)C(=O)N[C@@H](CCCCN)C(=O)N[C@@H](CCCCN)C(=O)N[C@@H](CCCCN)C(N)=O (stereo partly drawn) (Ac-GF[Tiq1c(1S)][Oic(3aξ,7aξ)]GK[Tiq1c(1S)][Oic(3aξ,7aξ)]GF[Tiq1c(1S)][Oic(3aξ,7aξ)]GK[Tiq1c(1S)]KKKKK-NH2)	–	–	Active	Active	Active	Active	Active	Active	–	–	0.073	0.0011	Not Active	–	–	–	–	–	–	–	MIC (Bacillus subtilis): 1 µM (≈ 2.57 µg/mL); MIC (Mycobacterium): 3 µM (≈ 7.71 µg/mL); MIC (Staphylococcus aureus [18]): 3 µM (≈ 7.71 µg/mL); MIC (Salmonella typhimurium): 10 µM (≈ 25.7 µg/mL)
CC(=O)N[C@@H](CCCCN)C(=O)N[C@@H](CCCCN)C(=O)N[C@@H](CCCCN)C(=O)N[C@@H](CCCCN)C(=O)NCC(=O)N[C@@H](Cc1ccccc1)C(=O)N1CCc2ccccc2[C@H]1C(=O)N1C2CCCCC2C[C@H]1C(=O)NCC(=O)N[C@@H](CCCCN)C(=O)N1CCc2ccccc2[C@H]1C(=O)N1C2CCCCC2C[C@H]1C(=O)NCC(=O)N[C@@H](Cc1ccccc1)C(=O)N1CCc2ccccc2[C@H]1C(=O)N1C2CCCCC2C[C@H]1C(=O)NCC(=O)N[C@@H](CCCCN)C(=O)N1CCc2ccccc2[C@H]1C(N)=O (stereo partly drawn) (Ac-KKKKGF[Tiq1c(1S)][Oic(3aξ,7aξ)]GK[Tiq1c(1S)][Oic(3aξ,7aξ)]GF[Tiq1c(1S)][Oic(3aξ,7aξ)]GK[Tiq1c(1S)]-NH2)	12.8 µM (≈ 31.2 µg/mL)	12.8 µM (≈ 31.2 µg/mL)	Active	Active	Active	Active	Active	Active	Active	Active	0.0085	0.57	Active	204 µM (≈ 498 µg/mL)	204 µM (≈ 498 µg/mL)	0.4 µM (≈ 0.976 µg/mL)	51 µM (≈ 124 µg/mL)	25.6 µM (≈ 62.5 µg/mL)	51 µM (≈ 124 µg/mL)	51 µM (≈ 124 µg/mL)	MIC (Mycobacterium): 3 µM (≈ 7.32 µg/mL); MIC (Staphylococcus aureus [18]): 30 µM (≈ 73.2 µg/mL); MIC (Salmonella typhimurium): 100 µM (≈ 244 µg/mL); Activity [14]: Active; MIC (Yersinia pestis): 13.1 µM (≈ 32 µg/mL); MIC (Staphylococcus aureus [17]): 102 µM (≈ 249 µg/mL)

— ChEMBL document CHEMBL2177070, “The effect of the placement and total charge of the basic amino acid clusters on antibacterial organism selectivity and potency” (Bioorg Med Chem, 2011)
